These are literature values, as cited in paper PMC9516332 (Frontiers in Oncology, 2022).

Data set [1] deals with panel of 255 wild-type kinases (Homo sapiens, UniProt P22455). The settings on record: kinase FGFR4; 1 µmol/L single concentration; ref DOI: 10.1371/journal.pone.0092146; cited from earlier work.
For data set [2], the target named is panel of 255 wild-type kinases (Homo sapiens, UniProt P42684). The settings on record: ARG kinase assay; 1 µmol/L single concentration; ref DOI: 10.1371/journal.pone.0092146; cited from earlier work.
Data set [3] concerns the target T1, panel of 255 wild-type kinases (Homo sapiens, UniProt P43403).
T1 sequence (P43403 1-619): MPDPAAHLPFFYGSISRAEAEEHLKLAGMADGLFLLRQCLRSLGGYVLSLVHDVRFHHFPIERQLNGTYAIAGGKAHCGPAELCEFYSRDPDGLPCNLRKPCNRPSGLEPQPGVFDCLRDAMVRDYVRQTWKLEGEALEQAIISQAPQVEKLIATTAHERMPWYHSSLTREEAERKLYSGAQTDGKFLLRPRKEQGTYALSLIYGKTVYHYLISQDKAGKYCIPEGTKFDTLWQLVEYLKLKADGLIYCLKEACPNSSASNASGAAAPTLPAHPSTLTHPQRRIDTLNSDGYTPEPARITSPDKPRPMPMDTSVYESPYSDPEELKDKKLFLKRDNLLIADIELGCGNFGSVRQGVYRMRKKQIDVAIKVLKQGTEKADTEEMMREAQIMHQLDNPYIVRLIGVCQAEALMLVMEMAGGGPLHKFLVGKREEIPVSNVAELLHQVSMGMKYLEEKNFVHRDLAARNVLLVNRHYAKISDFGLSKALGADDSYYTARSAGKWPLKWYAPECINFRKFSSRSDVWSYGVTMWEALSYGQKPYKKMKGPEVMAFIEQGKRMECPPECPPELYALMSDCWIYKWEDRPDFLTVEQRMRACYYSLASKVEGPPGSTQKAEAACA
Conditions: kinase ZAP70; 1 µmol/L single concentration; ref DOI: 10.1371/journal.pone.0092146; cited from earlier work.

Data set [4] concerns the target T2, panel of 255 wild-type kinases (Homo sapiens, UniProt O14920).
T2 sequence (O14920 1-756): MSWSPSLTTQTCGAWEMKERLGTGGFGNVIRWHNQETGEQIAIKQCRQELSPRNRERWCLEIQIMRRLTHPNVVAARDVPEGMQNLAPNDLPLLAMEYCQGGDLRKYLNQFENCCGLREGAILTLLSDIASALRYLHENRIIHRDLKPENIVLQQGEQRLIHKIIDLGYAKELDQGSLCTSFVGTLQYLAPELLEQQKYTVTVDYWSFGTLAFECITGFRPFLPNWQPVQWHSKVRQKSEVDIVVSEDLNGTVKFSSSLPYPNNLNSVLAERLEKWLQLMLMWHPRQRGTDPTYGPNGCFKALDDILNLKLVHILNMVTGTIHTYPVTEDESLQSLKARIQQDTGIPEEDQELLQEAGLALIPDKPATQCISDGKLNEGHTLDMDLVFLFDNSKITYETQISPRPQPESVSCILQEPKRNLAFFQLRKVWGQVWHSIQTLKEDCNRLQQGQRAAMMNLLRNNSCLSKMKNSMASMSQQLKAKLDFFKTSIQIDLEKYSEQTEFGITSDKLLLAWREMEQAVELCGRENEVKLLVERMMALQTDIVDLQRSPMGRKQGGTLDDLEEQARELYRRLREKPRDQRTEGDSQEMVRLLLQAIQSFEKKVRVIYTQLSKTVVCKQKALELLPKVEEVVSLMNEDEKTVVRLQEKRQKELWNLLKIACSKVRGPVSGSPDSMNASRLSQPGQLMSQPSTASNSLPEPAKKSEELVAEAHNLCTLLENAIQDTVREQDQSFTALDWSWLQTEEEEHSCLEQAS
Conditions: kinase IKKβ; 1 µmol/L single concentration; ref DOI: 10.1371/journal.pone.0092146; cited from earlier work.

In data set [5] the target is panel of 255 wild-type kinases (Homo sapiens, UniProt O14578). Conditions: kinase CRIK; 1 µmol/L single concentration; ref DOI: 10.1371/journal.pone.0092146; cited from earlier work.
For data set [6], the target named is panel of 255 wild-type kinases (Homo sapiens, UniProt P28482). Conditions: kinase Erk2; 1 µmol/L single concentration; ref DOI: 10.1371/journal.pone.0092146; cited from earlier work.
For data set [7], the target named is panel of 255 wild-type kinases (Homo sapiens, UniProt Q9BUB5). Conditions: MNK1; 1 µmol/L single concentration; ref DOI: 10.1371/journal.pone.0092146; cited from earlier work.
Data set [8] concerns the target panel of 255 wild-type kinases (Homo sapiens, UniProt P05129). The settings on record: kinase PKCγ; 1 µmol/L single concentration; ref DOI: 10.1371/journal.pone.0092146; cited from earlier work.
In data set [9] the target is panel of 255 wild-type kinases (Homo sapiens, UniProt Q9BYP7). Conditions: kinase WNK3; 1 µmol/L single concentration; ref DOI: 10.1371/journal.pone.0092146; cited from earlier work.

Turning to `CC(=O)Nc1cccc(-n2c(=O)n(C3CC3)c(=O)c3c(Nc4ccc(I)cc4F)n(C)c(=O)c(C)c32)c1` [trametinib], in data set [1], the “%-inhibition at 1 µmol/L, FGFR4” value is -3%. The “%-inhibition ARG” value in data set [2] was -4%. Further, the “%-inhibition at 1 µmol/L, ZAP70” value in data set [3] was -3%. Also, the “%-inhibition at 1 µmol/L, IKKβ” value in data set [4] is 0.741%. Also, the “%-inhibition at 1 µmol/L, CRIK” value in data set [5] is on record as -4.25%. In addition, the “%-inhibition at 1 µmol/L, Erk2” value in data set [6] is -5%. Further, the “%-inhibition, MNK1” value in [7] is -3%. The “%-inhibition at 1 µmol/L, PKCγ” value in data set [8] is listed as 0.381%. Moreover, the “%-inhibition at 1 µmol/L, WNK3” value in data set [9] is 1%.

Turning to `CCCS(=O)(=O)Nc1ccc(F)c(C(=O)c2c[nH]c3ncc(-c4ccc(Cl)cc4)cc23)c1F` [vemurafenib], the “%-inhibition at 1 µmol/L, FGFR4” value in data set [1] is given as 5%. For the same compound, the “%-inhibition ARG” value in data set [2] is 7%. Further, the “%-inhibition at 1 µmol/L, ZAP70” value in [3] was 6%. Besides, the “%-inhibition at 1 µmol/L, IKKβ” value in [4] is given as -3.31%. Also, the “%-inhibition at 1 µmol/L, CRIK” value in [5] is listed as -6%. In [6], the “%-inhibition at 1 µmol/L, Erk2” value is reported as -4.58%. For the same compound, the “%-inhibition, MNK1” value in data set [7] is 23%. The “%-inhibition at 1 µmol/L, PKCγ” value in data set [8] is reported as -4.39%. In data set [9], the “%-inhibition at 1 µmol/L, WNK3” value was 53%.
